The record followed here is patent US20050137807A1, “Method of visualization of the ADME properties of chemical substances” (priority 2003, published 2005).

One data set deals with human serum albumin (Homo sapiens, UniProt P02768). Put plainly: binding constant to human serum albumin (TRANSIL technology). From the text:
The effective molecular weight (MW) is obtained simply from the respective empirical formula of the substance. The waters solubilities and the typical administered dosages of these commercially available products are furthermore known from the literature.
The ADME maps in FIGS. 5 to 10 show by way of example a selection of commercially available pharmaceutical substances. The substance names and the associated experimental measurement values for their physicochemical properties are summarised in Table 1.

Data set [1] can be described thus: membrane affinity as a measure of the lipophilicity (TRANSIL technology). The data set is classed as physicochemical.
The mark [2] stands for this setting: log binding constant to human serum albumin, TRANSIL.

Chain of human serum albumin (P02768 25-609): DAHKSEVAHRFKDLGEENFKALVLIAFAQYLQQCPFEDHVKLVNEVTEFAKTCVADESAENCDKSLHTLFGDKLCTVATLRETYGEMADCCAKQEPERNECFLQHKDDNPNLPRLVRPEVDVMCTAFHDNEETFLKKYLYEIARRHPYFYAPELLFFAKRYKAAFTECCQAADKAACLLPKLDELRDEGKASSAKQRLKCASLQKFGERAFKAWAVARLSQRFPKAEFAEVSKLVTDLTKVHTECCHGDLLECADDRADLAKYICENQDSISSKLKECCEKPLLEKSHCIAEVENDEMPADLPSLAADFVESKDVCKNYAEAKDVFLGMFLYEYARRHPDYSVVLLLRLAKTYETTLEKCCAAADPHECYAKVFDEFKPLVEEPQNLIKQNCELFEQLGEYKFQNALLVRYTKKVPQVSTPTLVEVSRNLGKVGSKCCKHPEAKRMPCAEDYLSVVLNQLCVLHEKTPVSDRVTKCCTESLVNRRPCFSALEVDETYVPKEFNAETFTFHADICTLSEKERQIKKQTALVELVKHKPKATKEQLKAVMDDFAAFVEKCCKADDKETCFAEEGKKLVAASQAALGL

`CC(=O)Oc1ccccc1C(=O)O` [Acetylsalicylic acid] returned a LogHSA at human serum albumin (human) of −3.097. This molecule also had a LogMA in data set [1] of 0.301.
Regarding `Nc1nc2c(ncn2COCCO)c(=O)[nH]1` [Acyclovir], the LogMA in data set [1] was −0.097.
In data set [1], `N=C(N)NC(=O)c1nc(Cl)c(N)nc1N` [Amiloride] registered a LogMA of 0.301.
At human serum albumin (setting [2]), `CCOC(=O)C1=C(COCCN)NC(C)=C(C(=O)OC)C1c1ccccc1Cl` (centres unmarked) [Amlodipine] registered a LogHSA of −5.000.
As to `CC1(C)S[C@@H]2[C@H](NC(=O)[C@H](N)c3ccc(O)cc3)C(=O)N2[C@H]1C(=O)O` [Amoxicilin], the LogHSA at human serum albumin (setting [2]) was −2.301. Also, in data set [1], the LogMA worked out at 0.778.
In the case of `CC1(C)S[C@@H]2[C@H](NC(=O)[C@H](N)c3ccccc3)C(=O)N2[C@H]1C(=O)O` [Ampicillin], the LogMA in data set [1] is listed as 1.114.
The same measure, in the same setting: the same measure for `Cc1cc(=O)n(-c2ccccc2)n1C` [Antipyrine]: 1.146; for `CC(C)NCC(O)COc1ccc(CC(N)=O)cc1` (centres unmarked) [Atenolol]: 0.602.
`CC(C)NCC(O)COc1ccc(CCOCC2CC2)cc1` (centres unmarked) [Betaxolol] had a LogHSA at human serum albumin (human) of −3.187. This molecule returned a LogMA in data set [1] of 2.398.
The matching figures for `CCCCNc1cc(C(=O)O)cc(S(N)(=O)=O)c1Oc1ccccc1` [Bumetanide]: −5.076 and 2.279.
On the same counts, the results for `C[C@H](CS)C(=O)N1CCC[C@H]1C(=O)O` [Captopril] are −3.222 and 0.477.
At human serum albumin (human), `NC(=O)N1c2ccccc2C=Cc2ccccc21` [Carbamazepine] came in with a LogHSA of −2.539. The LogMA in data set [1] is reported as 2.519.
`CC1=C(C(=O)O)N2C(=O)[C@@H](NC(=O)[C@H](N)c3ccc(O)cc3)[C@H]2SC1` [Cefadroxil] returned a LogMA in data set [1] of 1.079.
On human serum albumin (setting [2]), `Cc1nnc(SCC2=C(C(=O)O)N3C(=O)[C@@H](NC(=O)Cn4cnnn4)[C@H]3SC2)s1` [Cefazolin] came in with a LogHSA of −3.456. In data set [1], this molecule had a LogMA of 0.903.
In turn, `CO[C@@]1(NC(=O)CSCC#N)C(=O)N2C(C(=O)O)=C(CSc3nnnn3C)CS[C@@H]21` [Cefmetazole] displayed a LogMA in data set [1] of 1.079.
Still for that read-out and setting: the same measure for `CCN1CCN(C(=O)N[C@@H](C(=O)N[C@@H]2C(=O)N3C(C(=O)O)=C(CSc4nnnn4C)CS[C@H]23)c2ccc(O)cc2)C(=O)C1=O` [Cefoperazone]: 1.362.
Same read-out and setting: the same measure for `CO[C@@]1(NC(=O)Cc2cccs2)C(=O)N2C(C(=O)O)=C(COC(N)=O)CS[C@@H]21` [Cefoxitin]: 1.000.
With `CC1=C(C(=O)O)N2C(=O)[C@@H](NC(=O)[C@H](N)c3ccccc3)[C@H]2SC1` [Cephalexine], in data set [1], the LogMA was 0.778.
On human serum albumin (human), `CN(C)CCCN1c2ccccc2Sc2ccc(Cl)cc21` [Chlorpromazine] gave a LogHSA of −3.284. The molecule further registered a LogMA in data set [1] of 4.075.
The matching figures for `CN/C(=N/CCSCc1nc[nH]c1C)NC#N` [Cimetidine]: −1.876 and 1.176.
For `O=C(O)c1cn(C2CC2)c2cc(N3CCNCC3)c(F)cc2c1=O` [Ciprofloxacin], in data set [1], the LogMA worked out at 0.954.
The molecule `CN1CCN(C2=Nc3cc(Cl)ccc3Nc3ccccc32)CC1` [Clozapine] gave a LogHSA on human serum albumin (human) of −3.814.
Consider `CN1C(=O)CN=C(c2ccccc2)c2cc(Cl)ccc21` [Diazepam], for which the LogMA in data set [1] was 3.170.
The same measure, in the same setting: the same measure for `O=C(O)Cc1ccccc1Nc1c(Cl)cccc1Cl` [Diclofenac]: 2.940; for `COc1ccc([C@@H]2Sc3ccccc3N(CCN(C)C)C(=O)[C@@H]2OC(C)=O)cc1` [Diltiazem]: 2.544.
In the case of `C[C@H](N[C@@H](CCc1ccccc1)C(=O)O)C(=O)N1CCC[C@H]1C(=O)O` [Enalaprilate], in data set [1], the LogMA is reported as 0.176.
Still for that read-out and setting: the same measure for `COc1cc([C@@H]2c3cc4c(cc3[C@@H](O[C@@H]3O[C@@H]5CO[C@@H](C)O[C@H]5[C@H](O)[C@H]3O)[C@H]3COC(=O)[C@H]23)OCO4)cc(OC)c1O` [Etoposide]: 2.000.
On to `CCOC(=O)C1=C(C)NC(C)=C(C(=O)OC)C1c1cccc(Cl)c1Cl` (centres unmarked) [Felodipine], for which the LogHSA at human serum albumin (setting [2]) is −5.301.
As for `CC(C)n1c(/C=C/C(O)CC(O)CC(=O)O)c(-c2ccc(F)cc2)c2ccccc21` (centres unmarked) [Fluvastatin], at human serum albumin (human), the LogHSA is listed as −5.678.
Take `NS(=O)(=O)c1cc(C(=O)O)c(NCc2ccco2)cc1Cl` [Furosemide]: the LogMA in data set [1] amounted to 1.342.
Same read-out and setting: the same measure for `Nc1nc(O)c2ncn(COC(CO)CO)c2n1` [Ganciclovir]: −0.301.
As for `C[C@]12CCC(=O)C=C1CC[C@@H]1[C@@H]2[C@@H](O)C[C@@]2(C)[C@H]1CC[C@]2(O)C(=O)CO` [Hydrocortisone], the LogMA in data set [1] was 2.716.
The same measure, in the same setting: the same measure for `CC(C)Cc1ccc(C(C)C(=O)O)cc1` (centres unmarked) [Ibuprofen]: 1.778; for `COc1ccc2c(c1)c(CC(=O)O)c(C)n2C(=O)c1ccc(Cl)cc1` [Indomethacin]: 2.255.
In data set [1], `CC(C(=O)O)c1cccc(C(=O)c2ccccc2)c1` (centres unmarked) [Ketoprofen] displayed a LogMA of 1.505.
Same read-out and setting: the same measure for `CCN(CC)CC(=O)Nc1c(C)cccc1C` [Lidocaine]: 1.771; for `NCCCC[C@H](N[C@@H](CCc1ccccc1)C(=O)O)C(=O)N1CCC[C@H]1C(=O)O` [Lisinopril]: 0.845.
Molecule `C[C@H]1C[C@@H]2[C@H]([C@@H](O)C[C@@]3(C)[C@H]2CC[C@]3(O)C(=O)CO)[C@@]2(C)C=CC(=O)C=C12` [Methylprednisolone] came in with a LogHSA at human serum albumin (human) of −3.000.
With `COC(=O)C1=C(C)NC(C)=C(C(=O)OCCN(C)Cc2ccccc2)C1c1cccc([N+](=O)[O-])c1` (centres unmarked) [Nicardipine], on human serum albumin (human), the LogHSA is −5.000.
Same read-out and setting: the same measure for `COCCOC(=O)C1=C(C)NC(C)=C(C(=O)OC(C)C)C1c1cccc([N+](=O)[O-])c1` (centres unmarked) [Nimodipine]: −5.000.
Molecule `O=C1CN=C(c2ccccc2)c2cc(Cl)ccc2N1` [Nordiazepam] had a LogMA in data set [1] of 3.086.
As for `CCC1(c2ccccc2)C(=O)NC(=O)NC1=O` [Phenobarbital], the LogHSA on human serum albumin (setting [2]) was −2.854.
The molecule `CC(=O)Nc1ccc(OCC(O)CNC(C)C)cc1` (centres unmarked) [Practolol] returned a LogMA in data set [1] of 1.301.
Consider `COc1cc2nc(N3CCN(C(=O)c4ccco4)CC3)nc(N)c2cc1OC` [Prazosin], for which the LogMA in data set [1] is given as 2.544.
On the same count and under the same terms, the same measure for `C[C@]12C=CC(=O)C=C1CC[C@@H]1[C@@H]2[C@@H](O)C[C@@]2(C)[C@H]1CC[C@]2(O)C(=O)CO` [Prednisolone]: 2.568; for `CCN(CC)CCNC(=O)c1ccc(N)cc1` [Procainamide]: 1.176.
For `CNC(=C[N+](=O)[O-])NCCSCc1ccc(CN(C)C)o1` [Ranitidine], at human serum albumin (human), the LogHSA is given as −2.155.
The molecule `O=C(O)c1ccccc1O` [Salicylic acid] gave a LogMA in data set [1] of 0.602.
With `CN1[C@@H]2C[C@@H](OC(=O)[C@H](CO)c3ccccc3)C[C@H]1[C@@H]1O[C@@H]12` [Scopolamine], the LogMA in data set [1] was 1.462.
On the same count and under the same terms, the same measure for `O=C(O)c1cc(/N=N/c2ccc(S(=O)(=O)Nc3ccccn3)cc2)ccc1O` [Sulfasalacine]: 2.748; for `CC(=O)CC(c1ccccc1)c1c(O)c2ccccc2oc1=O` (centres unmarked) [Warfarin]: 1.505; for `Cc1cn([C@H]2C[C@H](N=[N+]=[N-])[C@@H](CO)O2)c(=O)[nH]c1=O` [Zidovudine]: 0.903.
For the molecule Gentamicin, the LogMA in data set [1] was 0.000.
